We go through 20 molecules from US11814367B2, “Inhibitors of glycogen synthase 1 (GYS1) and methods of use thereof” (Maze Therapeutics, Inc., priority 2021, dated 2023).

The structures appear in SMILES notation.

Test [1] deals with hGYS1 enzyme / glycogen synthesis in HeLa cells. As to the kind of experiment: GYS1 cell based assay (glycogen synthesis, Glucose-glo). More on the design: species or system human. The note with it: Homo sapiens, 24 h incubation, 20 mM glucose, geometric mean of at least 2 runs. The gist of the method:
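HeLa cells starved 24 h in medium containing only 1× Glutamax were plated onto compound in medium with 20 mM glucose (1% DMSO final) for 24 h, 37 °C, 5% CO2. Acid lysates were Tris-quenched, glucoamylase-digested (pH 5.3, 1 h, 37 °C) and read by Glucose-glo luminescence. IC50 came from Hill fits, as geometric mean of ≥2 runs.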

The target of test [2] is hGYS1 enzyme (recombinant hGYS1/GN1 protein) (Homo sapiens (Human), UniProt P13807). Briefly: GYS1 coupled enzyme assay (PK/LDH). In kind it is biochemical. The following applies: hGYS1/GN1 50 nM, UDP-Glucose 0.8 mM, G6P 1 mM; geometric mean of at least 2 runs.
Chain of hGYS1 enzyme (recombinant hGYS1/GN1 protein) (P13807 whole entry): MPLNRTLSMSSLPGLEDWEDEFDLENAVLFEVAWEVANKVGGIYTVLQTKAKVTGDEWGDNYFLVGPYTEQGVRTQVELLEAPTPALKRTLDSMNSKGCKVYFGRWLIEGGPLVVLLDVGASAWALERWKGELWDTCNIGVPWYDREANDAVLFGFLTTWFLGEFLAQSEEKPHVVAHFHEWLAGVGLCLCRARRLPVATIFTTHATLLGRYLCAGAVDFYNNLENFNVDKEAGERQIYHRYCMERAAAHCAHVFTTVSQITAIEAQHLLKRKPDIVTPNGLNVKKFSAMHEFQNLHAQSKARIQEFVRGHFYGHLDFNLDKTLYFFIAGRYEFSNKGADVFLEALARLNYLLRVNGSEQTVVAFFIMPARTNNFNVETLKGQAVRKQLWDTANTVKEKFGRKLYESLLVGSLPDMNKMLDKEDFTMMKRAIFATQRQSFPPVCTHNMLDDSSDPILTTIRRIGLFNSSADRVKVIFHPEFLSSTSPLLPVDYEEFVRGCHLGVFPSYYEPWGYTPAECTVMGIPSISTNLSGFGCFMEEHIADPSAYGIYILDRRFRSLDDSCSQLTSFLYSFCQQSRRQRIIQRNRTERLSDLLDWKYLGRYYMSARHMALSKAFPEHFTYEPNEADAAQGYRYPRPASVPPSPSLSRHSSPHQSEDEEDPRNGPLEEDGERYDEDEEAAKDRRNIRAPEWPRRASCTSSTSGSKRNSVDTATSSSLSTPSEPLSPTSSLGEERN
Chain of hGYS1 enzyme (recombinant hGYS1/GN1 protein) (P46976 whole entry partner): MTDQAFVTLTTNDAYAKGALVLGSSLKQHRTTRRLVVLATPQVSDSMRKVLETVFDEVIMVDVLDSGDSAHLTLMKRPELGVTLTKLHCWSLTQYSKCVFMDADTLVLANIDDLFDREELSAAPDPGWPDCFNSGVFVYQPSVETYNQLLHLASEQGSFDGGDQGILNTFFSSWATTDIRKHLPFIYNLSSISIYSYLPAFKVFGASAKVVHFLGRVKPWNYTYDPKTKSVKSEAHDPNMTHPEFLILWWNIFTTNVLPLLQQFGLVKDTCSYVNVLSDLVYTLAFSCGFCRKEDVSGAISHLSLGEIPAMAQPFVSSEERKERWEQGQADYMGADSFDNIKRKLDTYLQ

For the molecule `CCn1cc(CC(=O)N2C[C@H](F)C[C@H]2C(=O)N[C@@H](c2ccccc2)c2ccc(C3CC(F)(F)C3)c(F)n2)cc(C)c1=O` [Compound 523, (2S,4R)-N-[(S)-[5-(3,3-difluorocyclobutyl)-6-fluoropyridin-2-yl](phenyl)methyl]-1-[2-(1-ethyl-5-methyl-6-oxo-1,6-dihydropyridin-3-yl)acetyl]-4-fluoropyrrolidine-2-carboxamide], the IC50 (usually the point on the concentration scale where inhibition reaches its midpoint) in test [1] (HeLa, 24 h) was found to be 80 nM; in test [2], 5 nM.
For `CCOc1ncc(CC(=O)N2C[C@H](F)C[C@H]2C(=O)N[C@@H](c2ccccc2)c2ccc(C3CC(F)(F)C3)c(F)n2)cc1C` [Compound 524, (2S,4R)-N-[(S)-[5-(3,3-difluorocyclobutyl)-6-fluoropyridin-2-yl](phenyl)methyl]-1-[2-(6-ethoxy-5-methylpyridin-3-yl)acetyl]-4-fluoropyrrolidine-2-carboxamide], the IC50 worked out at 190 nM in test [1] (HeLa, 24 h) and 6 nM in test [2].
On to `CCn1cc(C)cc(CC(=O)N2C[C@H](F)C[C@H]2C(=O)N[C@@H](c2ccccc2)c2ccc(C3CC(F)(F)C3)c(F)n2)c1=O` [Compound 525, (2S,4R)-N-[(S)-[5-(3,3-difluorocyclobutyl)-6-fluoropyridin-2-yl](phenyl)methyl]-1-[2-(1-ethyl-5-methyl-2-oxo-1,2-dihydropyrdin-3-yl)acetyl]-4-fluoropyrrolidine-2-carboxamide], for which the IC50 in test [1] (HeLa, 24 h) worked out at 50 nM; in test [2], 4 nM.
Take `CCn1cccc(CC(=O)N2C[C@H](F)C[C@H]2C(=O)N[C@@H](c2ccccc2)c2ccc(C3CC(F)(F)C3)c(F)n2)c1=O` [Compound 526, (2S,4R)-N-[(S)-[5-(3,3-difluorocyclobutyl)-6-fluoropyridin-2-yl](phenyl)methyl]-1-[2-(1-ethyl-2-oxo-1,2-dihydropyridin-3-yl)acetyl]-4-fluoropyrrolidine-2-carboxamide]: the IC50 in test [1] (HeLa, 24 h) was found to be 130 nM; in test [2], 11 nM.
Regarding `CCn1cc(CC(=O)N2C[C@H](F)C[C@H]2C(=O)N[C@@H](c2ccccc2)c2ccc(C3CC(F)(F)C3)c(F)n2)ncc1=O` [Compound 527, (2S,4R)-N-[(S)-[5-(3,3-difluorocyclobutyl)-6-fluoropyridin-2-yl](phenyl)methyl]-1-[2-(4-ethyl-5-oxo-4,5-dihydropyrazin-2-yl)acetyl]-4-fluoropyrrolidine-2-carboxamide], the IC50 was 250 nM in test [1] (HeLa, 24 h) and 7 nM in test [2].
Consider `O=C(N[C@@H](c1ccccc1)c1ccc(C2CC(F)(F)C2)c(F)n1)[C@@H]1C[C@@H](F)CN1C(=O)Cc1nc(C(F)(F)F)co1` [Compound 528, (2S,4R)-N-[(S)-[5-(3,3-difluorocyclobutyl)-6-fluoropyridin-2-yl](phenyl)methyl]-4-fluoro-1-{2-[4-(trifluoromethyl)-1,3-oxazol-2-yl]acetyl}pyrrolidine-2-carboxamide], for which the IC50 in test [1] (HeLa, 24 h) was 330 nM; in test [2], 15 nM.
For `O=C(N[C@@H](c1ccccc1)c1ccc(C2CC(F)(F)C2)c(F)n1)[C@@H]1C[C@@H](F)CN1C(=O)Cc1ncc[nH]c1=O` [Compound 529, (2S,4R)-N-[(S)-[5-(3,3-difluorocyclobutyl)-6-fluoropyridin-2-yl](phenyl)methyl]-4-fluoro-1-[2-(3-oxo-3,4-dihydropyrazin-2-yl)acetyl]pyrrolidine-2-carboxamide] the same measures were 1040 nM and 16 nM.
For `O=C(N[C@@H](c1ccccc1)c1ccc(C2CC(F)(F)C2)c(F)n1)[C@@H]1C[C@@H](F)CN1C(=O)Cc1c[nH]c(=O)cn1` [Compound 530, (2S,4R)-N-[(S)-[5-(3,3-difluorocyclobutyl)-6-fluoropyridin-2-yl](phenyl)methyl]-4-fluoro-l-[2-(5-oxo-4,5-dihydropyrazin-2-yl)acetyl]pyrrolidine-2-carboxamide], in that order: 910 nM and 12 nM.
As for `CCn1ccnc(CC(=O)N2C[C@H](F)C[C@H]2C(=O)N[C@@H](c2ccccc2)c2ccc(C3CC(F)(F)C3)c(F)n2)c1=O` [Compound 531, (2S,4R)-N-[(S)-[5-(3,3-difluorocyclobutyl)-6-fluoropyridin-2-yl](phenyl)methyl]-1-[2-(4-ethyl-3-oxo-3,4-dihydropyrazin-2-yl)acetyl]-4-fluoropyrrolidine-2-carboxamide], the concentration for half-maximal inhibition (IC50) was determined as 60 nM in test [1] (HeLa, 24 h) and 8 nM in test [2].
For `O=C(N[C@@H](c1ccccc1)c1ccc(C2CC(F)(F)C2)cn1)[C@@H]1C[C@@H](F)CN1C(=O)Cc1nc(C(F)(F)F)co1` [Compound 543, (2S,4R)-N-[(S)-[5-(3,3-difluorocyclobutyl)pyridin-2-yl](phenyl)methyl]-4-fluoro-1-{2-[4-(trifluoromethyl)-1,3-oxazol-2-yl]acetyl}pyrrolidine-2-carboxamide], in that order: 610 nM and 49 nM.
As to `O=C(N[C@H](c1ccccc1)c1ccc(C2CC(F)(F)C2)c(F)c1)[C@@H]1C[C@@H](F)CN1C(=O)CNC(=O)N1CCC1` [Compound 545, (2S,4R)-1-((azetidine-1-carbonyl)glycyl)-N—((R)-(4-(3,3-difluorocyclobutyl)-3-fluorophenyl)(phenyl)methyl)-4-fluoropyrrolidine-2-carboxamide], the IC50 in test [1] (HeLa, 24 h) is over 30000 nM; in test [2], 1680 nM.
For `O=C(N[C@@H](c1ccccc1)c1ccc(C2CC(F)(F)C2)c(F)c1)[C@@H]1C[C@@H](F)CN1C(=O)Cc1nc(C(F)(F)F)co1` [Compound 555, (2S,4R)-N-[(S)-[4-(3,3-difluorocyclobutyl)-3-fluorophenyl](phenyl)methyl]-4-fluoro-1-{2-[4-(trifluoromethyl)-1,3-oxazol-2-yl]acetyl}pyrrolidine-2-carboxamide], in that order: 660 nM and 97 nM.
On to `Cc1cn(CC(=O)N2C[C@H](F)C[C@H]2C(=O)N[C@H](c2ccccc2)c2ccc(C3(C)CC3)c(F)c2)c(=O)[nH]c1=O` [Compound 557, (2S,4R)-4-fluoro-N—((R)-(3-fluoro-4-(1-methylcyclopropyl)phenyl)(phenyl)methyl)-1-(2-(5-methyl-2,4-dioxo-3,4-dihydropyrimidin-1(2H)-yl)acetyl)pyrrolidine-2-carboxamide], for which the IC50 in test [1] (HeLa, 24 h) came to 5780 nM; in test [2], 424 nM.
Regarding `CC1(c2ccc([C@@H](NC(=O)[C@@H]3C[C@@H](F)CN3C(=O)Cc3cnn[nH]3)c3cccnc3)cc2F)CC1` [Compound 559, (2S,4R)-4-fluoro-N-[(R)-[3-fluoro-4-(1-methylcyclopropyl)phenyl](pyridin-3-yl)methyl]-1-[2-(1H-1,2,3-triazol-5-yl)acetyl]pyrrolidine-2-carboxamide], the IC50 in test [1] (HeLa, 24 h) was over 22100 nM; in test [2], 1580 nM.
For `CC1(c2ccc([C@@H](NC(=O)[C@@H]3C[C@@H](F)CN3C(=O)Cc3cc4ccccc4[nH]3)c3ccccc3)nc2F)CC1` [Compound 598, (2S,4R)-4-fluoro-N-[(S)-[6-fluoro-5-(1-methylcyclopropyl)pyridin-2-yl](phenyl)methyl]-1-[2-(1H-indol-2-yl)acetyl]pyrrolidine-2-carboxamide], in that order: 2180 nM and 153 nM.
For `CC(C)(C)OC(=O)n1c(CC(=O)N2C[C@H](F)C[C@H]2C(=O)N[C@@H](c2ccccc2)c2ccc(C3(C)CC3)c(F)n2)cc2ccccc21` [Compound 601, tert-butyl 2-{2-[(2S,4R)-4-fluoro-2-{[(S)-[6-fluoro-5-(1-methylcyclopropyl)pyridin-2-yl](phenyl)methyl]carbamoyl}pyrrolidin-1-yl]-2-oxoethyl}-1H-indole-1-carboxylate] the same measures were 710 nM and 34 nM.
In the case of `COC(=O)NCc1cccc([C@H](NC(=O)[C@@H]2C[C@@H](F)CN2C(=O)Cc2cnn[nH]2)c2ccc(C(C)C)c(F)n2)c1` [Compound 638, methyl (3-((S)-((2S,4R)-1-(2-(1H-1,2,3-triazol-5-yl)acetyl)-4-fluoropyrrolidine-2-carboxamido)(6-fluoro-5-isopropylpyridin-2-yl)methyl)benzyl)carbamate], the IC50 in test [1] is over 23400 nM; in test [2], 399 nM.
Regarding `CC(=O)NCc1cccc([C@H](NC(=O)[C@@H]2C[C@@H](F)CN2C(=O)Cc2cnn[nH]2)c2ccc(C(C)C)c(F)n2)c1` [Compound 655, (2S,4R)-N-[(S)-[3-(acetamidomethyl)phenyl][6-fluoro-5-(propan-2-yl)pyridin-2-yl]methyl]-4-fluoro-1-[2-(1H-1,2,3-triazol-5-yl)acetyl]pyrrolidine-2-carboxamide], the concentration for half-maximal inhibition (IC50) is over 30000 nM in test [1] (HeLa, 24 h) and 1010 nM in test [2].
For `CNC(=O)NCc1cccc([C@H](NC(=O)[C@@H]2C[C@@H](F)CN2C(=O)Cc2cnn[nH]2)c2ccc(C(C)C)c(F)n2)c1` [Compound 656, (2S,4R)-4-fluoro-N-[(S)-[6-fluoro-5-(propan-2-yl)pyridin-2-yl](3-{[(methylcarbamoyl)amino]methyl}phenyl)methyl]-1-[2-(1H-1,2,3-triazol-5-yl)acetyl]pyrrolidine-2-carboxamide], in that order: 10800 nM and 1300 nM.
Turning to `CC1(c2ccc([C@H](NC(=O)[C@@H]3C[C@@H](F)CN3C(=O)Cc3cnn[nH]3)c3ccccc3)cc2F)CCC1` [Compound 684, (2S,4R)-4-fluoro-N-[(R)-[3-fluoro-4-(1-methylcyclobutyl)phenyl](phenyl)methyl]-1-[2-(1H-1,2,3-triazol-5-yl)acetyl]pyrrolidine-2-carboxamide], the IC50 turned out to be 13800 nM in test [1] (HeLa, 24 h) and 1330 nM in test [2].
